Data on three compounds can be found in patent US8283312B2, “Compositions and methods for modulating body weight and treating obesity-related disorders” (The Research Foundation of State University of New York, priority 2005, dated 2012).

In one experiment the test system is RYGB rats. Nature of the experiment: Food intake and body weight of RYGB rats given test substance via implanted intraperitoneal pump. Format: in vivo, rat. The method, then: Daily Measurements: Postoperatively, daily body weight (BW) and caloric intake were measured each morning. The PF group was given the average food intake consumed the previous day by the RYGB group. Daily changes in BW, plotted every three day, are shown in FIG. 2 and the mean change per post-operative time periods are expressed in Table 1 using the same construct as earlier reported in our previous study (6).
A pump (Model 2002, Alza Corp. Palo Alto, Calif.) was implanted i.p. in each of 5 RYGB rats thirty days after RYGB. The pump was loaded with either the PYY receptor antagonist, B11E0246 (TOCRIS, Ellisville, Mo.), or a control solution (DMSO), and released its ingredient at the rate of about 8.3 μl/day (360 nm B11E0246/Kg/day). Food intake was measured as described above.
In a second experiment, a pump was implanted i.p. in each of 5 RYGB rats thirty days after RYGB. The pump was loaded with either ghrelin, or a control solution (DMSO), and released its ingredient at the rate of 8.3 μl/day (60 ng ghrelin/Kg/day). Food intake was measured as described above.
In a third experiment, a pump was implanted i.p. in each of 5 RYGB rats thirty days after RYGB. The pump was loaded with either a combination of the PYY receptor antagonist B11E0246 and ghrelin, or a control solution (DMSO). The pump released its ingredient at the rate of 8.3 μl/day (360 nm B11E0246/Kg/day and 60 ng ghrelin/Kg/day). Food intake was measured as described above.

The next experiment relates to mice. The following applies: cited from earlier work.
For a further experiment, the system named is obese subjects. The following applies: 12 obese subjects, as compared to 12 lean subjects; cited from earlier work.
[1] abbreviates: physiological levels of ghrelin (60 ng/Kg/day) alone, i.p. pump, FIG. 7.

Like-named read-outs stand apart in the source and are kept apart here. Where no end group is shown, it is not given here. The star is where a group is joined. Octanoyl = CCCCCCCC(=O)*

Take `N=C(N)NCCC[C@H](NC(=O)CC1(CC(=O)N2CCN(C3c4ccccc4NC(=O)c4ccccc43)CC2)CCCC1)C(=O)NCCn1c(=O)n(-c2ccccc2)n(-c2ccccc2)c1=O` (stereo partly drawn) [B11E0246]: in the experiment with RYGB rats (i.p. pump implanted thirty days after RYGB, 360 nm B11E0246/Kg/day, vs control solution (DMSO), FIG. 6), the “daily and cumulative food intake” value was “increased daily and cumulative food intake”.

In the case of “PYY(3-36): functional analog of PYY; peptide consisting of amino acid 3 to 36 of PYY”, the food intake entry was “unchanged” in the experiment with mice (freely feeding mice) and “significant reduction of food intake for 24 h but not for 48 h” in the experiment on mice (single intraperitoneal injection, 24 h fasted mice). In addition, the “decrease of ad libitum food intake per meal” value with obese subjects was 33%.

As for “ghrelin: peptide of 28 amino acids, in which the serine 3 residue is n-octanoylated; gut hormone that stimulates food intake (GSS(Octanoyl)FLSPEHQRVQQRKESKKPPAKLQPR; UniProt Q9UBU3 24-51, looked up)”, in the experiment with RYGB rats (setting [1]), the body weight result was “did not significantly increase food intake or body weight” and the food intake entry is recorded as “did not significantly increase food intake or body weight”.
